Laboratory results: US20260317319A1, “NOVEL ERGOLINES AND METHODS OF TREATING MOOD DISORDERS” (Gilgamesh Pharma Inc., priority 2023, published 2026)
Read-outs that look alike come from different tables or passages of the source.

Tests used:
[1] = target: T1, 5-HT2B receptor (Homo sapiens, UniProt P41595); assay: cell-based; type: cell-based; conditions: Ca2+ flux; for Emax: HEK293, agonist, HEK293, max dose, read-out: 5-HT2B % Act @ Max Dose; for EC50: agonist, HEK293
T1 construct: expressed in transfected cells; host or cells: HEK293, stably transfected
Method: (§1) Functional Assays at 5-HT2A, 5-HT2B, and 5-HT1A. Agonist activity at 5-HT2A, 5-HT2B, 5HT2C and 5-HT1A receptors was determined using a FLIPR Ca^2+ flux assay at WuXi AppTec (Hong Kong) Limited according to their standard protocols. Briefly, stably transfected cells expressing the receptor of interest and Gα15 in the case of 5-HT1A (HEK293 for 5-HT2A and 5-HT2B; CHO cells for 5-HT1A) were grown and plated in a 384 well plate and incubated at 37° C. and 5% CO2 overnight. A solution of 250 mM probenecid in 1 mL FLIPR assay buffer was prepared fresh. This was combined with a fluorescent dye (Fluo-4 Direct™) to make a final assay concentration of 2.5 mM. […] The fluorescent dye was then added to the assay plate along with assay buffer to a final volume of 40 μL. The cell plate was incubated for 50 min at 37° C. and 5% CO2 and placed into the FLIPR Tetra along with the compound plate. 10 μL of references and compounds were then transferred from the compound plate into the cell plate and the fluorescent signal was read.

[2] = target: T2, 5-HT1A receptor (Homo sapiens, UniProt P08908); assay: cell-based; conditions: agonist, Ca2+ flux; for Emax: CHO, CHO cells with Gα15, max dose, read-out: 5-HT1A % Act @ Max Dose; for EC50: CHO cells with Gα15
T2 construct: expressed in transfected cells; host or cells: CHO cells, stably transfected
T2 sequence (P08908 1-422): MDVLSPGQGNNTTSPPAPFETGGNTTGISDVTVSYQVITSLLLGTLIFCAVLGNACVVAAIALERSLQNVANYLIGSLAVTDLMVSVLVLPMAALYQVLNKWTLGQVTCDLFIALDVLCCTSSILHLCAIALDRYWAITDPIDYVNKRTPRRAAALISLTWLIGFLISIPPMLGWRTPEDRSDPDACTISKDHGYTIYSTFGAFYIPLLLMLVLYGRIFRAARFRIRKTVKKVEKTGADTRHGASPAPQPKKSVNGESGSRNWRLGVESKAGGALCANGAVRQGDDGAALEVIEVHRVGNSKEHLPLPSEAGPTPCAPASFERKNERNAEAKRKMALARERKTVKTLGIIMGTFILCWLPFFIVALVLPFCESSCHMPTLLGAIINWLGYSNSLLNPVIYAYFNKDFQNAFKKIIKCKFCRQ
Method: as §1

[3] = target: T3, 5-HT1B receptor (Homo sapiens, UniProt P28222); assay: cAMP accumulation functional assay at 5-HT1B; type: cell-based; conditions: agonist, cAMP accumulation, max dose; read-out: 5-HT1B % Act @ Max Dose
T3 construct: expressed in transfected cells
Method: Functional Assay at 5-HT1B. Agonist activity at 5-HT1B was determined using a CAMP accumulation protocol at WuXi AppTec (Hong Kong) Limited according to their standard protocols. Briefly, stably transfected cells were plated in an OptiPlate-384 well plate, incubated at RT for 60 mins, and cAMP standard solution (800 nM, 10 μL) was added to the blank well. Then, 10 μL detection reagent was added to each well, the plate incubated for 60 mins at RT, and the plate read using En Vision.

[4] = target: T4, 5-HT2A receptor (Homo sapiens, UniProt P28223); assay: cell-based; type: cell-based; design: expressed in transfected cells; host or cells: HEK293, stably transfected; conditions: for Emax: HEK293, agonist, HEK293, max dose, read-out: 5-HT2A % Act @ Max Dose; for Emax / EC50: Ca2+ flux; for EC50: agonist, HEK293
Method: as §1

[5] = in vitro; type: in vitro ADME, human; conditions: human, microsomes, HLM 0.50 mg/mL, NADPH 1 mM, 1 μM compound, pH 7.4, 37° C., 60 min; for microsomal CLint: read-out: Intrinsic clearance (Clint); for half-life: read-out: half-life (t1/2)
[6] = in vitro; type: in vitro ADME, mouse; conditions: mouse, microsomes, MLM (male CD-1) 0.50 mg/mL, NADPH 1 mM, 1 μM compound, pH 7.4, 37° C., 60 min; for microsomal CLint: read-out: Intrinsic clearance (Clint); for half-life: read-out: half-life (t1/2)
Source text: MLM Stability Pooled MLM from male CD-1 mice (BIOIVT M00501) were used.

[7] = in vitro; type: in vitro ADME, rat; conditions: rat, microsomes, RLM (male Sprague-Dawley) 0.50 mg/mL, NADPH 1 mM, 1 μM compound, pH 7.4, 37° C., 60 min; for microsomal CLint: read-out: Intrinsic clearance (Clint); for half-life: read-out: half-life (t1/2)
Source text: RLM Stability Pooled RLM from male Sprague-Dawley rats (Xenotech R1000) were used.

[8] = target: T4, 5-HT2A receptor; assay: biochemical; type: binding; design: expressed in transfected cells; host or cells: HEK293, stably transfected; conditions: [3H]ketanserin 1 nM; HEK293 stable cell line; 1 h, 25 °C
Method: Affinity of the test compounds for the 5-HT2A receptor was determined in radioligand binding experiments with [^3H]ketanserin by WuXi AppTec (Hong Kong) Limited, using methods adapted from the literature and under conditions described in Table 1.

T1 sequence (P41595 whole entry): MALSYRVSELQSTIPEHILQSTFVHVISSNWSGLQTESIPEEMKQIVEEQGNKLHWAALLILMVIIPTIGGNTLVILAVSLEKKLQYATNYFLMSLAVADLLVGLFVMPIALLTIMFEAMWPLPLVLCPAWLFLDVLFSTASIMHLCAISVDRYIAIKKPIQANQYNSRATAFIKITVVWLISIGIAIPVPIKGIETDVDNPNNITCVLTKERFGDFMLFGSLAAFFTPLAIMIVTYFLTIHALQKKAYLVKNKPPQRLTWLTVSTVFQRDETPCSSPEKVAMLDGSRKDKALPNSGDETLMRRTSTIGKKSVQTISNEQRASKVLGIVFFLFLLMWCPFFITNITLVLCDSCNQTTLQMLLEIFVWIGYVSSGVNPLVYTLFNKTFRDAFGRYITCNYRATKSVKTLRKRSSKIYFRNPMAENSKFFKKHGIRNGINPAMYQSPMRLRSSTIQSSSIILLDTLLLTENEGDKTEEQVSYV
T3 sequence (P28222 whole entry): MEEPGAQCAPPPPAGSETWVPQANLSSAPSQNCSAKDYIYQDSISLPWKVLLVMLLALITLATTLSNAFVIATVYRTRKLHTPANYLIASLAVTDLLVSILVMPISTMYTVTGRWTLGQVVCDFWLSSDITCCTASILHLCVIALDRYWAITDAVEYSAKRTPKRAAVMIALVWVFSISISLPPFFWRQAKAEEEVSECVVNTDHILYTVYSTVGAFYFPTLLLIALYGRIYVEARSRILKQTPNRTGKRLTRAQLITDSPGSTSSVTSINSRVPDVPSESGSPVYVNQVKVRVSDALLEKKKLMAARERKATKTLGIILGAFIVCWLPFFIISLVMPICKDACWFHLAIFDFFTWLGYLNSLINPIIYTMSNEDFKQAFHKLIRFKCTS
T4 sequence (P28223 whole entry): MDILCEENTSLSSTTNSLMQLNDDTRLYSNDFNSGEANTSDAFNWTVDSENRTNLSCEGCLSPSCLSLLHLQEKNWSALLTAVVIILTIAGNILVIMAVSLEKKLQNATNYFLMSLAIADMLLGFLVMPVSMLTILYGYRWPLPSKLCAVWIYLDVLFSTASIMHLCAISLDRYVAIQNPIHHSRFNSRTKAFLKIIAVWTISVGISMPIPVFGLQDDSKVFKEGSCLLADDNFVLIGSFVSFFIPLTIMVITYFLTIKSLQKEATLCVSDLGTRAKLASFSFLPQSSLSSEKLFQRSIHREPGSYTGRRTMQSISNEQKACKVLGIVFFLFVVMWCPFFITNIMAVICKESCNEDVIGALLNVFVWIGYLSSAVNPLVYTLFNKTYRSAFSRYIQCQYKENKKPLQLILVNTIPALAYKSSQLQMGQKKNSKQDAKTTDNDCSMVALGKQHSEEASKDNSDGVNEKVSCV

SMILES | Emax [1] | Emax [2] | Emax [3] | Emax [4] | EC50 [1] | EC50 [2] | microsomal CLint [5] | half-life [5] | microsomal CLint [6] | half-life [6] | microsomal CLint [7] | half-life [7] | Ki [8] | EC50 [4] | selectivity for 5-HT2A over the other serotonin receptors tested ([4]; functional agonist activity)
CCCN1C[C@H](C(=O)N(CC)CC)C=C2c3cccc4[nH]c(Br)c(c34)C[C@H]21 [Compound 9, (6aR,9R)-5-bromo-N,N-diethyl-7-propyl-4,6,6a,7,8,9-hexahydroindolo[4,3-fg]quinoline-9-carboxamide] | 89.6% | 101% | 81.5% | 75.8% | – | – | – | – | – | – | – | – | – | – | –
CCCN1C[C@H](C(=O)N2[C@@H](C)C[C@@H]2C)C=C2c3cccc4[nH]c(Br)c(c34)C[C@H]21 [Compound 47, ((6aR,9R)-5-bromo-7-propyl-4,6,6a,7,8,9-hexahydroindolo[4,3-fg]quinolin-9-yl)((2S,4S)-2,4-dimethylazetidin-1-yl)methanone] | 87% | 62.1% | 76.2% | 57% | – | – | – | – | – | – | – | – | – | – | –
C=CCN1C[C@H](C(=O)N2[C@@H](C)C[C@@H]2C)C=C2c3cccc4[nH]cc(c34)C[C@H]21 [Compound 27, ((6aR,9R)-7-allyl-4,6,6a,7,8,9-hexahydroindolo[4,3-fg]quinolin-9-yl)((2S,4S)-2,4-dimethylazetidin-1-yl)methanone] | 96% | 90.8% | 96.9% | 81.1% | – | – | – | – | – | – | – | – | – | – | –
CCN(CC)C(=O)[C@@H]1C=C2c3cccc4[nH]cc(c34)C[C@H]2N(CCF)C1 [Compound 39, (6aR,9R)—N,N-diethyl-7-(2-fluoroethyl)-4,6,6a,7,8,9-hexahydroindolo[4,3-fg]quinoline-9-carboxamide] | 85.5% | 91.2% | 99% | 95.5% | – | – | – | – | – | – | – | – | – | – | –
C[C@H]1C[C@H](C)N1C(=O)[C@@H]1C=C2c3cccc4[nH]cc(c34)C[C@H]2N(CCCF)C1 [Compound 26, ((2S,4S)-2,4-dimethylazetidin-1-yl)((6aR,9R)-7-(3-fluoropropyl)-4,6,6a,7,8,9-hexahydroindolo[4,3-fg]quinolin-9-yl)methanone] | 101% | 97.9% | 77.2% | 83.2% | – | – | – | – | – | – | – | – | – | – | –
CCN(CC)C(=O)[C@@H]1C=C2c3cccc4[nH]c(Br)c(c34)C[C@H]2N(CCCF)C1 [Compound 41, (6aR,9R)-5-bromo-N,N-diethyl-7-(3-fluoropropyl)-4,6,6a,7,8,9-hexahydroindolo[4,3-fg]quinoline-9-carboxamide] | 84.5% | 39.8% | 61.5% | 75.4% | – | – | – | – | – | – | – | – | – | – | –
CN1C[C@H](C(=O)N(CCF)CCF)C=C2c3cccc4[nH]cc(c34)C[C@H]21 [Compound 38, (6aR,9R)—N,N-bis(2-fluoroethyl)-7-methyl-4,6,6a,7,8,9-hexahydroindolo[4,3-fg]quinoline-9-carboxamide] | 28.1% | 90.5% | 94.7% | 93.4% | – | – | – | – | – | – | – | – | – | – | –
CC[C@@H](C)NC(=O)[C@@H]1C=C2c3cccc4[nH]cc(c34)C[C@H]2N(Cc2cccc(OC)c2)C1 [Compound 95, (6aR,9R)—N—((R)-sec-butyl)-7-(3-methoxybenzyl)-4,6,6a,7,8,9-hexahydroindolo[4,3-fg]quinoline-9-carboxamide] | 0.13% | 63.2% | – | 63.8% | > 10000 nM | 42900 nM | 685 µL/min/mg | 2 min | 2020 µL/min/mg | 0.7 min | 1600 µL/min/mg | 0.9 min | 15.3 nM | 642 nM | –
CCN(CC)C(=O)[C@@H]1C=C2c3cccc4[nH]cc(c34)C[C@H]2N(Cc2cccc3ccccc23)C1 [Compound 101, (6aR,9R)—N,N-diethyl-7-(naphthalen-1-ylmethyl)-4,6,6a,7,8,9-hexahydroindolo[4,3-fg]quinoline-9-carboxamide] | 11.7% | 61.8% | – | 86.5% | > 10000 nM | 71100 nM | 84.6 µL/min/mg | 16.4 min | 483 µL/min/mg | 2.9 min | 525 µL/min/mg | 2.6 min | 24.5 nM | 271 nM | –
O=C([C@@H]1C=C2c3cccc4[nH]cc(c34)C[C@H]2N(Cc2ccccc2)C1)N1CCCC1 [Compound 84, ((6aR,9R)-7-benzyl-4,6,6a,7,8,9-hexahydroindolo[4,3-fg]quinolin-9-yl)(pyrrolidin-1-yl)methanone] | 5.16% | 40.3% | – | 68.9% | > 10000 nM | 1690 nM | 89.7 µL/min/mg | 15.5 min | 146 µL/min/mg | 9.5 min | 101 µL/min/mg | 13.7 min | 17.8 nM | 895 nM | –
CC[C@@H](C)NC(=O)[C@@H]1C=C2c3cccc4[nH]cc(c34)C[C@H]2N(CCC(F)(F)F)C1 [Compound 40, (6aR,9R)—N—((R)-sec-butyl)-7-(3,3,3-trifluoropropyl)-4,6,6a,7,8,9-hexahydroindolo[4,3-fg]quinoline-9-carboxamide] | 8.46% | 22.3% | 62.1% | 45.1% | – | – | – | – | – | – | – | – | – | – | highly selective for 5-HT2A
CCCN1C[C@H](C(=O)N[C@H](C)CC)C=C2c3cccc4[nH]c(Br)c(c34)C[C@H]21 [Compound 46, (6aR,9R)-5-bromo-N—((R)-sec-butyl)-7-propyl-4,6,6a,7,8,9-hexahydroindolo[4,3-fg]quinoline-9-carboxamide] | 79% | 69.5% | 78.8% | 69.5% | – | – | – | – | – | – | – | – | – | – | –
